Common to all, as to test: DTP human tumour cell line panel, 48 h
Experiment [1] relates to U251 CNS.
The subject of experiment [2] is HS 578T breast.
Experiment [3] relates to SNB-19 CNS.
Experiment [4] concerns SF-539 CNS.
Experiment [5] concerns SF-268 CNS.
In experiment [6] the test system is K-562 leukemia.
Experiment [7] relates to MOLT-4 leukemia.
In experiment [8] the test system is NCI/ADR-RES ovarian.
The subject of experiment [9] is DU-145 prostate.
Experiment [10] concerns SW-620 colon.
Experiment [11] has as its system HCT-116 colon.
Experiment [12] relates to SN12C renal.
In experiment [13] the test system is HOP-62 NSCLC.
Experiment [14] deals with HCC-2998 colon.
Experiment [15] concerns PC-3 prostate.
Experiment [16] has as its system 786-0 renal.
In experiment [17] the test system is RXF 393 renal.
Experiment [18] has as its system T-47D breast.
For experiment [19], the system named is NCI-H226 lung.
Experiment [20] relates to LOX IMVI melanoma.

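Dose response: 5 concentrations. Exposure: 48 h. Format: 96-well plates. Endpoint: linear interpolation; highest concentration if not reached. The concentration for full growth arrest is given as TGI.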

Regarding `CC(=O)O[C@@H]1CC2[C@@H](CCC3Cc4nc5c(nc4C[C@@]32C)CC2CC[C@@H]3C(CC[C@@]4(C)C3CC[C@@H]4C(C)CCCC(C)C)[C@@]2(C)C5)C2C[C@@H]3OC4(CCC(C)CO4)C(C)[C@@H]3[C@]21C` (some centres not stated), the concentration for total growth inhibition (TGI) in experiment [1] was above 100 µM; in experiment [2], 96.4 µM; in experiment [3], above 100 µM; in experiment [4] it was above 100 µM; in experiment [5] it was above 100 µM; in experiment [6] it was above 100 µM. The TGI in experiment [7], in [8], in experiment [9], in [10], in [11] and in experiment [12] was above 100 µM throughout. For the same compound, the TGI in [13] was above 100 µM; in [14], above 100 µM; in [15], above 100 µM; in experiment [16], above 100 µM; in experiment [17] it was 50.3 µM; in experiment [18], above 100 µM. Also, the total growth inhibition concentration (TGI) in experiment [19] worked out at 87.1 µM.
Take `Cc1ccc(C(=O)/C=C/N2CCN(c3cccc(C(F)(F)F)c3)CC2)cc1`: the TGI in experiment [1] is 31.4 µM; in experiment [2], 51.4 µM; in experiment [3], above 100 µM; in experiment [4], 31.5 µM; in experiment [5], 36.8 µM; in experiment [6] it was 49.1 µM. Besides, the total growth inhibition concentration (TGI) in [7] was found to be 48.2 µM; in experiment [8], 33 µM; in [9], 38 µM; in experiment [10], 49.8 µM; in experiment [11] it was 30.6 µM; in [12] it was 36.3 µM. Moreover, the TGI in [13] was 37.4 µM; in experiment [14], 25.5 µM; in [15], above 100 µM; in [16], 34 µM; in experiment [17], 33.1 µM; in experiment [18], 76.5 µM. This compound had a concentration for total growth inhibition (TGI) in [19] of 38.9 µM.
Regarding `O=c1[nH]c2cc([N+](=O)[O-])c(N(CCO)CCO)c([N+](=O)[O-])c2[nH]1`, the TGI in [1] is above 100 µM; in experiment [2], above 100 µM; in [3] it was above 100 µM; in experiment [4] it was 77.1 µM; in experiment [5], above 100 µM; in experiment [6] it was above 100 µM. Besides, the TGI in [7] is 91.7 µM; in experiment [20], above 100 µM; in experiment [8] it was above 100 µM; in experiment [9], above 100 µM; in experiment [10], above 100 µM; in [11], 87.5 µM. The TGI is above 100 µM in [12]; above 100 µM in [13]; above 100 µM in [15]; above 100 µM in experiment [16]; 49.4 µM in experiment [17]; 80.5 µM in experiment [18]. Moreover, the total growth inhibition concentration (TGI) in [19] is 71.4 µM.
For the compound `CCN(CC)CCNC(=O)c1cc2cc(NC(=O)c3cc4cc(NC(=O)c5cc6cc([N+](=O)[O-])ccc6[nH]5)ccc4[nH]3)ccc2[nH]1`, the concentration for total growth inhibition (TGI) in experiment [1], in [2], in [3], in [5], in experiment [6] and in experiment [7] was above 100 µM each time. Besides, the total growth inhibition concentration (TGI) in experiment [20], in experiment [8], in experiment [9], in experiment [10], in experiment [12] and in experiment [13] was above 100 µM each time. Further, the total growth inhibition concentration (TGI) in experiment [14], in experiment [15], in experiment [16], in experiment [17], in experiment [18] and in experiment [19] was above 100 µM throughout.
Regarding `O=S(=O)(Nc1nc(-c2cc(O)c(O)c(O)c2)cs1)c1ccc(Cl)cc1Cl`, the TGI is 37.3 µM in experiment [1]; 53.6 µM in experiment [2]; above 100 µM in experiment [3]; 71.5 µM in [4]; 46.2 µM in experiment [5]; 48 µM in [6]. Further, the TGI in [7] is 52.7 µM; in experiment [20], 33.6 µM; in experiment [8], 69 µM; in [9], 53.8 µM; in experiment [10], 37.5 µM; in experiment [11], 40.1 µM. In addition, the TGI is 33.4 µM in experiment [12]; 35.1 µM in [13]; above 100 µM in [15]; 46.2 µM in experiment [16]; 71.4 µM in experiment [17]; 41.1 µM in experiment [18]. In experiment [19], this compound showed a TGI above 100 µM.
With `CC(Nc1cc(=O)n(C)c(=O)[nH]1)c1ccccc1` (configuration not stated), the concentration for total growth inhibition (TGI) in experiment [1], in experiment [2], in experiment [3], in experiment [4], in experiment [5] and in [6] was above 100 µM in each case. Also, the TGI in experiment [7], in experiment [20], in experiment [8], in [9], in [10] and in experiment [11] was above 100 µM throughout. For the same compound, the total growth inhibition concentration (TGI) in [12], in experiment [13], in experiment [14], in experiment [15], in experiment [16] and in experiment [17] was above 100 µM in each case. In [18], this compound showed a concentration for total growth inhibition (TGI) above 100 µM.
Consider `COC(=O)Nc1nc2ccc(NS(=O)(=O)c3ccc(F)cc3)cc2[nH]1`, for which the TGI in experiment [1] is above 100 µM; in experiment [2] it was 9.66 µM; in [3], above 100 µM; in experiment [4], 52.9 µM; in experiment [5], above 100 µM; in [6] it was above 100 µM. The TGI in [7] was 36.5 µM; in [20] it was above 100 µM; in experiment [8], 54.2 µM; in experiment [9] it was above 100 µM; in experiment [10], above 100 µM; in [11], above 100 µM. Also, the TGI in [12] was above 100 µM; in experiment [13], above 100 µM; in experiment [15], above 100 µM; in [16], above 100 µM; in experiment [17], 78.6 µM; in experiment [18], above 100 µM. For the same compound, in experiment [19], the TGI was above 100 µM.

The term TGI denotes the concentration at which net growth stops. A lower TGI goes with greater sensitivity of the cells.

For the origin of these results see PubChem BioAssay (NCI).
